Laboratory results published in publication PMC3417242 (Journal of medicinal chemistry, 2012).
Where two headings read alike, the source gives them in different places.

Tests used:
H146 cell line [1] = experiment: Cell death induction by trypan blue assay; assay type: cell-based, Human; settings: 24 h
H146 cell line [2] = experiment: Western blotting of caspase-3 and PARP cleavage in cells; assay type: cell-based, Human; settings: 24 h
[3] = tested on: H146 xenograft tumor tissues; experiment: In vivo pharmacodynamic; set-up: species or system SCID mice; settings: at its maximum tolerated dose (data not shown)
Bcl-xL [4] = target: T1, Bcl-xL (Homo sapiens, UniProt Q07817); settings: read-out: Ki, binding to Bcl-xL; previously reported; cited from earlier work
T1 sequence (Q07817 whole entry): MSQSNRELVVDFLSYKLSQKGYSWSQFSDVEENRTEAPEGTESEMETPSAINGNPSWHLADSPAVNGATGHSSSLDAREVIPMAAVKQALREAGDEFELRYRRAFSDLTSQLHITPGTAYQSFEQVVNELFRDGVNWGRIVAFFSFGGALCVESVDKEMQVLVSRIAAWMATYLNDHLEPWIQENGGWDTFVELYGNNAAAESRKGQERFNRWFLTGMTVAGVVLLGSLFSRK

Bcl-xL [5] = target: T1, Bcl-xL; experiment: Fluorescence polarization-based; assay type: binding
[6] = tested on: H1417 small-cell lung cancer cell line; experiment: Cell growth inhibition, H1417; assay type: cell-based, Human
[7] = tested on: H146 small-cell lung cancer cell line; experiment: Cell growth inhibition, H146; assay type: cell-based, Human
[8] = tested on: H146, H1417 and H1963 cancer cell lines; assay type: cell-based, Human
Bcl-2 [9] = target: T2, Bcl-2 (Homo sapiens, UniProt P10415); experiment: Fluorescence polarization-based; assay type: binding; settings: for times less potent than 12 in binding to Bcl-2: compared with compound 12
T2 sequence (P10415 whole entry): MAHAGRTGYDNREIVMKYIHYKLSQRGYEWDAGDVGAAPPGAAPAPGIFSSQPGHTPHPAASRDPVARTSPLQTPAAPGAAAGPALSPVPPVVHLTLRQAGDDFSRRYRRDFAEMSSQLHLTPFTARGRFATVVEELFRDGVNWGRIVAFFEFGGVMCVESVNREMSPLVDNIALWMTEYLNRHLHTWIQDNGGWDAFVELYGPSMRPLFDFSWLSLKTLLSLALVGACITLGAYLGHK

Bcl-2 [10] = target: T2, Bcl-2; experiment: Cell-free mitochondrial functional assay, Bcl-2; settings: compared with compound 1
SCID mice = experiment: Toxicity in SCID mice; assay type: in vivo; settings: 25 mg/kg, daily intravenous dosing, five days a week for 2 weeks
H146 xenograft model = experiment: In vivo efficacy study, H146 xenograft model; settings: 25 mg/kg daily i.v. 5 days a week for 2 weeks
H146 cancer cells = experiment: Release of cytochrome C from mitochondria in cells; assay type: cell-based, Human; settings: for Release of cytochrome C and cleavage of PARP at 30 nM: 2 h, H146 cells; for Release of cytochrome C from mitochondria in H146 cells: treatment as short as 2 h
[11] = tested on: H1963 small-cell lung cancer cell line; experiment: Cell growth inhibition, H1963; assay type: cell-based; settings: read-out: Cell Growth Inhibition (IC50 ± SD) H1963

## CN(C)CC[C@H](CSc1ccccc1)Nc1ccc(S(=O)(=O)NC(=O)c2ccc(N3CCN(Cc4ccccc4-c4ccc(Cl)cc4)CC3)cc2)cc1[N+](=O)[O-] [Compound 1, reference compound]
H146 cell line [1]
  Cell death induction in H146: effectively induce cell death in H146 in a dose-dependent manner
H146 cell line [2]
  Cleavage of caspase-3 and PARP in H146: induce cleavage of caspase-3 and poly (ADP- ribose) polymerase (PARP) in a dose-dependent manner

## CCc1c(-c2ccc(Cl)cc2)c(-c2cccc(N3CCN(c4ccc(NS(=O)(=O)c5ccc(N[C@H](CCN(C)C)CSc6ccccc6)c([N+](=O)[O-])c5)cc4)CC3)c2)c(C(=O)O)n1C [Compound 6]
[3]
  Apoptosis induction in H146 xenograft tumor tissues: fails to induce robust apoptosis
Bcl-xL [4]
  Ki: < 0.001 µM
Bcl-xL [5]; read-out: Binding Affinities Bcl-xL Ki ± SD, FP competitive binding
  Ki: < 0.001 µM

## CN1CCN(CCCNC(=O)c2c(-c3ccccc3)c(-c3ccc(Cl)cc3)cn2CC[C@H](O)CO)CC1 [Compound 7, reference compound]
[6]; Homo sapiens, NCI-H1417, read-out: Cell Growth Inhibition (IC50 ± SD) H1417
  IC50: > 10 µM
[7]; Homo sapiens, NCI-H146, read-out: Cell Growth Inhibition (IC50 ± SD) H146
  IC50: > 10 µM

## Cc1c(C(=O)NCCCN2CCN(C)CC2)c(-c2ccccc2)c(-c2ccc(Cl)cc2)n1C [Compound 8, 5-(4-Chlorophenyl)-1,2-dimethyl-N-(3-(4-methylpiperazin-1-yl)propyl)-4-phenyl-1H-pyrrole-3-carboxamide]
[8]
  Cellular activity (cell growth inhibition): minimal cellular activity
Bcl-xL [5]; Ki compared with compound 7
  times more potent than 7 in binding to Bcl-xL: 2 times
Bcl-2 [9]; Ki compared with compound 7
  times more potent than 7 in binding to Bcl-2: 2 times

## Cc1c(C(=O)NCCCN2CCN(C)CC2)c(-c2cccc(N3CCN(c4ccc(NS(=O)(=O)c5ccc(N[C@H](CCN(C)C)CSc6ccccc6)c([N+](=O)[O-])c5)cc4)CC3)c2)c(-c2ccc(Cl)cc2)n1C [Compound 10, (R)-5-(4-Chlorophenyl)-4-(3-(4-(4-(4-((4-(dimethylamino)-1-(phenylthio)butan-2-yl)amino)-3-nitrophenylsulfonamido)phenyl)piperazin-1-yl)phenyl)-1,2-dimethyl-N-(3-(4-methylpiperazin-1-yl)propyl)-1H-pyrrole-3-carboxamide]
Bcl-2 [10]
  times less potent than 1 in the Bcl-2 functional assay: 3 times

## CNC(=O)c1c(-c2cccc(N3CCN(c4ccc(NS(=O)(=O)c5ccc(N[C@H](CCN(C)C)CSc6ccccc6)c([N+](=O)[O-])c5)cc4)CC3)c2)c(-c2ccc(Cl)cc2)n(C)c1C [Compound 11, (R)-5-(4-Chlorophenyl)-4-(3-(4-(4-(4-((4-(dimethylamino)-1-(phenylthio)butan-2-yl)amino)-3-nitrophenylsulfonamido)phenyl)piperazin-1-yl)phenyl)-N,1,2-trimethyl-1H-pyrrole-3-carboxamide]
[8]
  times more potent than compound 10 in cell growth inhibition: 2–4 times

## Cc1c(C(=O)O)c(-c2cccc(N3CCN(c4ccc(NS(=O)(=O)c5ccc(N[C@H](CCN(C)C)CSc6ccccc6)c([N+](=O)[O-])c5)cc4)CC3)c2)c(-c2ccc(Cl)cc2)n1C [Compound 12, (R)-5-(4-Chlorophenyl)-4-(3-(4-(4-(4-((4-(dimethylamino)-1-(phenylthio)butan-2-yl)amino)-3-nitrophenylsulfonamido)phenyl)piperazin-1-yl)phenyl)-1,2-dimethyl-1H-pyrrole-3-carboxylic acid]
[8]
  times more potent than compound 10 in cell growth inhibition: 2–4 times
H146 cell line [1]
  Cell death induction in H146: effectively induce cell death in H146 in a dose-dependent manner
H146 cell line [2]
  Cleavage of caspase-3 and PARP in H146: induce cleavage of caspase-3 and poly (ADP- ribose) polymerase (PARP) in a dose-dependent manner

## Cc1cc(-c2cccc(N3CCN(c4ccc(NS(=O)(=O)c5ccc(N[C@H](CCN(C)C)CSc6ccccc6)c([N+](=O)[O-])c5)cc4)CC3)c2)c(-c2ccc(Cl)cc2)n1C [Compound 13, (R)-N-(4-(4-(3-(2-(4-Chlorophenyl)-1,5-dimethyl-1H-pyrrol-3-yl)phenyl)piperazin-1-yl)phenyl)-4-((4-(dimethylamino)-1-(phenylthio)butan-2-yl)amino)-3-nitrobenzenesulfonamide]
Bcl-2 [9]
  times less potent than 12 in binding to Bcl-2: 100 times

## CCn1c(C)c(C(=O)O)c(-c2cccc(N3CCN(c4ccc(NS(=O)(=O)c5ccc(N[C@H](CCN(C)C)CSc6ccccc6)c([N+](=O)[O-])c5)cc4)CC3)c2)c1-c1ccc(Cl)cc1 [Compound 14, (R)-5-(4-Chlorophenyl)-4-(3-(4-(4-(4-((4-(dimethylamino)-1-(phenylthio)butan-2-yl)amino)-3-nitrophenylsulfonamido)phenyl)piperazin-1-yl)phenyl)-1-ethyl-2-methyl-1H-pyrrole-3-carboxylic acid]
SCID mice
  Tolerability in SCID mice: well tolerated
H146 cell line [1]
  Cell death induction in H146 at 10 nM: induce robust cell death
  Cell death induction in H146: effectively induce cell death in H146 in a dose-dependent manner
H146 xenograft model
  Inhibition of tumor growth: very effective in inhibition of tumor growth
  Maximum weight loss during the treatment: < 10%
  Other signs of toxicity: no other signs of toxicity observed
  Tumor regression during the treatment phase: capable of achieving tumor regression
H146 cell line [2]
  Cleavage of caspase-3 and PARP in H146: induce cleavage of caspase-3 and poly (ADP- ribose) polymerase (PARP) in a dose-dependent manner
H146 cancer cells
  Release of cytochrome C and cleavage of PARP at 30 nM: robust
  Release of cytochrome C from mitochondria in H146 cells: induces a release of cytochrome C in a dose-dependent manner

## Cc1c(C(=O)O)c(-c2cccc(N3CCN(c4ccc(NS(=O)(=O)c5ccc(N[C@H](CCN(C)C)CSc6ccccc6)c([N+](=O)[O-])c5)cc4)CC3)c2)c(-c2ccc(Cl)cc2)n1C(C)C [Compound 15, (R)-5-(4-Chlorophenyl)-4-(3-(4-(4-(4-((4-(dimethylamino)-1-(phenylthio)butan-2-yl)amino)-3-nitrophenylsulfonamido)phenyl)piperazin-1-yl)phenyl)-1-isopropyl-2-methyl-1H-pyrrole-3-carboxylic acid]
[8]; direct comparison
  times more potent than compound 1 in cell growth inhibition: 10–100 times
SCID mice
  Tolerability in SCID mice: toxic to the animals which had severe weight loss
H146 cell line [1]
  Cell death induction in H146 at 10 nM: induce robust cell death
  Cell death induction in H146: effectively induce cell death in H146 in a dose-dependent manner
H146 cell line [2]
  Cleavage of caspase-3 and PARP in H146: induce cleavage of caspase-3 and poly (ADP- ribose) polymerase (PARP) in a dose-dependent manner
H146 cancer cells
  Release of cytochrome C and cleavage of PARP at 30 nM: robust
  Release of cytochrome C from mitochondria in H146 cells: induces a release of cytochrome C in a dose-dependent manner

## Cc1c(C(=O)O)c(-c2cccc(N3CCN(c4ccc(NS(=O)(=O)c5ccc(N[C@H](CCN(C)C)CSc6ccccc6)c([N+](=O)[O-])c5)cc4)CC3)c2)c(-c2ccc(Cl)cc2)n1C1CC1 [Compound 16, (R)-5-(4-Chlorophenyl)-1-cyclopropyl-4-(3-(4-(4-(4-((4-(dimethylamino)-1-(phenylthio)-butan-2-yl)amino)-3-nitrophenylsulfonamido)phenyl)piperazin-1-yl)phenyl)-2-methyl-1H-pyrrole-3-carboxylic acid]
Bcl-2 [9]
  times less potent than 12 in binding to Bcl-2: 10 times

## (R)-5-(4-Chlorophenyl)-4-(3-(4-(4-(((4-((4-(dimethylamino)-1-(phenylthio)butan-2-yl)amino)phenyl)sulfonyl)carbamoyl)phenyl)piperazin-1-yl)phenyl)-1,2-dimethyl-N-(3-(4-methylpiperazin-1-yl)propyl)-1H-pyrrole-3-carboxamide [Compound 9]
[6]; read-out: Cell Growth Inhibition (IC50 ± SD) H1417, H1417
  IC50: > 10 µM
[7]; read-out: Cell Growth Inhibition (IC50 ± SD) H146, H146
  IC50: > 10 µM
[11]
  IC50: > 10 µM
